Test results as given in US20170071944A1, “MODULATORS OF TOLL-LIKE RECEPTORS FOR THE TREATMENT OF HIV” (Gilead Sciences, Inc., priority 2015, published 2017).

System: immune cell subsets in PBMC cultures from HIV-1 infected subjects on cART
Assay: Induced immune cell activation in PBMC cultures from HIV-1 infected subjects on cART (flow cytometry)
Assay type: cell-based, human
Settings: for B Cells CD69 % / B Cells CD69 Fold vs DMSO / B Cells CD80 % / B Cells CD80 Fold vs DMSO / DCs CD69 % / DCs CD69 Fold vs DMSO / DCs CD80 % / DCs CD80 Fold vs DMSO / CD4+ T Cells CD25 % / CD4+ T Cells CD25 Fold vs DMSO / CD4+ T Cells CD69 % / CD4+ T Cells CD69 Fold vs DMSO / CD4+ T Cells Perforin % / CD4+ T Cells Perforin Fold vs DMSO / CD8+ T Cells CD25 % / CD8+ T Cells CD25 Fold vs DMSO / CD8+ T Cells CD28 % / CD8+ T Cells CD28 Fold vs DMSO / CD8+ T Cells CD38 % / CD8+ T Cells CD38 Fold vs DMSO / CD8+ T Cells CD69 % / CD8+ T Cells CD69 Fold vs DMSO / Monocytes CD11c % / Monocytes CD11c Fold vs DMSO / Monocytes CD69 % / Monocytes CD69 Fold vs DMSO / Monocytes CD80 % / Monocytes CD80 Fold vs DMSO / NK Cells CD25 % / NK Cells CD25 Fold vs DMSO / NK Cells CD69 % / NK Cells CD69 Fold vs DMSO: 2 days, geometric mean; for B Cells CD69 % / B Cells CD69 Fold vs DMSO / B Cells CD80 % / B Cells CD80 Fold vs DMSO / DCs CD69 % / DCs CD69 Fold vs DMSO / DCs CD80 % / DCs CD80 Fold vs DMSO: N = 4; for CD4+ T Cells CD25 % / CD4+ T Cells CD25 Fold vs DMSO / CD4+ T Cells CD69 % / CD4+ T Cells CD69 Fold vs DMSO / CD4+ T Cells Perforin % / CD4+ T Cells Perforin Fold vs DMSO / CD8+ T Cells CD25 % / CD8+ T Cells CD25 Fold vs DMSO / CD8+ T Cells CD28 % / CD8+ T Cells CD28 Fold vs DMSO / CD8+ T Cells CD38 % / CD8+ T Cells CD38 Fold vs DMSO / CD8+ T Cells CD69 % / CD8+ T Cells CD69 Fold vs DMSO / Monocytes CD11c % / Monocytes CD11c Fold vs DMSO / Monocytes CD69 % / Monocytes CD69 Fold vs DMSO / Monocytes CD80 % / Monocytes CD80 Fold vs DMSO / NK Cells CD25 % / NK Cells CD25 Fold vs DMSO / NK Cells CD69 % / NK Cells CD69 Fold vs DMSO: N = 6
Method: TLR8 modulating compound affects activation of distinct cell populations, PBMCs were purified from HIV-1 infected subjects on cART, as described in Example 121 (anonymized participant IDs 184, 185, 188, 189, 190, and 191). […] After incubation, PBMCs were harvested and stained with antibodies conjugated to specific fluorophores (BD Biosciences) to delineate immune cell subsets: CD4 T cells (CD3+ CD4+ CD8-), CD8 T cells (CD3+ CD8+ CD4-), NK cells (CD3-CD56+ CD16+), monocytes (CD3-CD14+), B cells (CD3-CD19+), and peripheral dendritic cells (DCs), defined as positive for HLA-DR and negative for a panel of markers: CD3, CD14, CD16, CD19, CD20, CD56 (Lin-1 lineage panel, BD Biosciences).
Additional markers of activation, maturation, and effector function were included for cell subsets, as follows: CD4 and CD8 T cells (CD25, CD38, CD69, IFN-γ, granzyme B, perforin, TNF-α), NK cells (CD25, CD69, IFN-γ), monocytes (CD11c, CD16, CD80, CD86, CD163, TNF-α), B cells (CD40, CD69, CD80, CD86), and DC (CD11c, CD69, CD80, CD86, CD123, and CD163). Cells were stained for surface markers (CD3, CD4, CD8, CD11c, CD14, CD16, CD25, CD69, CD80, CD86, CD163), washed, treated with fixation and permeabilization buffer (eBioscience), and stained for intracellular markers (IFN-γ, granzyme B, perforin, TNF-α). Cells were evaluated by flow cytometry on a LSR Fortessa (BD Biosciences), and data was analyzed with FlowJo software (TreeStar).
Data are expressed as geometric mean percentage (%) and as geometric mean fold-activation (Fold) for each marker and for each PBMC subset obtained from 4 or 6 subjects, as indicated. Fold activation is calculated as a ratio of the % positive for each marker for each PBMC subset at the indicated concentration of the compound of Example 15 relative to % positive for DMSO treated samples. Fold activations that are 1.5 are in bold.

SMILES: CCCC[C@H](CO)Nc1nc(N)nc2cccnc12 [Example 15]
- Perforin in CD8+ T cells with treatment: did not increase
- B Cells CD69 % (Example 15 10 nM): 10.0%
- B Cells CD69 Fold vs DMSO (Example 15 10 nM): 1.2 fold
- B Cells CD80 % (Example 15 10 nM): 2.6%
- B Cells CD80 Fold vs DMSO (Example 15 10 nM): 1.6 fold
- DCs CD69 % (Example 15 10 nM): 0.3%
- DCs CD69 Fold vs DMSO (Example 15 10 nM): 0.1 fold
- DCs CD80 % (Example 15 10 nM): 49.8%
- DCs CD80 Fold vs DMSO (Example 15 10 nM): 1.8 fold
- CD4+ T Cells CD25 % (Example 15 10 nM): 1.5%
- CD4+ T Cells CD25 Fold vs DMSO (Example 15 10 nM): 0.6 fold
- CD4+ T Cells CD69 % (Example 15 10 nM): 5.7%
- CD4+ T Cells CD69 Fold vs DMSO (Example 15 10 nM): 0.7 fold
- CD4+ T Cells Perforin % (Example 15 10 nM): 11.8%
- CD4+ T Cells Perforin Fold vs DMSO (Example 15 10 nM): 1.5 fold
- CD8+ T Cells CD25 % (Example 15 10 nM): 0.2%
- CD8+ T Cells CD25 Fold vs DMSO (Example 15 10 nM): 0.6 fold
- CD8+ T Cells CD28 % (Example 15 10 nM): 0.1%
- CD8+ T Cells CD28 Fold vs DMSO (Example 15 10 nM): 0.9 fold
- CD8+ T Cells CD38 % (Example 15 10 nM): 25.3%
- CD8+ T Cells CD38 Fold vs DMSO (Example 15 10 nM): 0.9 fold
- CD8+ T Cells CD69 % (Example 15 10 nM): 3.7%
- CD8+ T Cells CD69 Fold vs DMSO (Example 15 10 nM): 0.8 fold
- Monocytes CD11c % (Example 15 10 nM): 0.4%
- Monocytes CD11c Fold vs DMSO (Example 15 10 nM): 0.6 fold
- Monocytes CD69 % (Example 15 10 nM): 0.8%
- Monocytes CD69 Fold vs DMSO (Example 15 10 nM): 0.3 fold
- Monocytes CD80 % (Example 15 10 nM): 33.0%
- Monocytes CD80 Fold vs DMSO (Example 15 10 nM): 1.1 fold
- NK Cells CD25 % (Example 15 10 nM): 0.2%
- NK Cells CD25 Fold vs DMSO (Example 15 10 nM): 0.4 fold
- NK Cells CD69 % (Example 15 10 nM): 0.8%
- NK Cells CD69 Fold vs DMSO (Example 15 10 nM): 0.4 fold
- B Cells CD69 % (Example 15 100 nM): 3.9%
- B Cells CD69 Fold vs DMSO (Example 15 100 nM): 0.5 fold
- B Cells CD80 % (Example 15 100 nM): 1.7%
- B Cells CD80 Fold vs DMSO (Example 15 100 nM): 1.1 fold
- DCs CD69 % (Example 15 100 nM): 1.0%
- DCs CD69 Fold vs DMSO (Example 15 100 nM): 0.4 fold
- DCs CD80 % (Example 15 100 nM): 67.2%
- DCs CD80 Fold vs DMSO (Example 15 100 nM): 2.4 fold
- CD4+ T Cells CD25 % (Example 15 100 nM): 3.9%
- CD4+ T Cells CD25 Fold vs DMSO (Example 15 100 nM): 1.7 fold
- CD4+ T Cells CD69 % (Example 15 100 nM): 7.7%
- CD4+ T Cells CD69 Fold vs DMSO (Example 15 100 nM): 1.0 fold
- CD4+ T Cells Perforin % (Example 15 100 nM): 10.4%
- CD4+ T Cells Perforin Fold vs DMSO (Example 15 100 nM): 1.3 fold
- CD8+ T Cells CD25 % (Example 15 100 nM): 0.3%
- CD8+ T Cells CD25 Fold vs DMSO (Example 15 100 nM): 1.0 fold
- CD8+ T Cells CD28 % (Example 15 100 nM): 0.1%
- CD8+ T Cells CD28 Fold vs DMSO (Example 15 100 nM): 1.1 fold
- CD8+ T Cells CD38 % (Example 15 100 nM): 29.2%
- CD8+ T Cells CD38 Fold vs DMSO (Example 15 100 nM): 1.0 fold
- CD8+ T Cells CD69 % (Example 15 100 nM): 3.4%
- CD8+ T Cells CD69 Fold vs DMSO (Example 15 100 nM): 0.7 fold
- Monocytes CD11c % (Example 15 100 nM): 3.6%
- Monocytes CD11c Fold vs DMSO (Example 15 100 nM): 5.2 fold
- Monocytes CD69 % (Example 15 100 nM): 1.8%
- Monocytes CD69 Fold vs DMSO (Example 15 100 nM): 0.6 fold
- Monocytes CD80 % (Example 15 100 nM): 47.7%
- Monocytes CD80 Fold vs DMSO (Example 15 100 nM): 1.6 fold
- NK Cells CD25 % (Example 15 100 nM): 0.8%
- NK Cells CD25 Fold vs DMSO (Example 15 100 nM): 1.6 fold
- NK Cells CD69 % (Example 15 100 nM): 1.1%
- NK Cells CD69 Fold vs DMSO (Example 15 100 nM): 0.6 fold
